# Marks after values point to notes of the source that are not given here.
# Columns and labels:
# [1] = test system: high-cholesterol diet-fed CD-1 mice; experiment: Hypolipidemic activity in high-cholesterol diet-fed CD-1 mice; type: in vivo; conditions: 16 days, post-absorptive state; for P-triglycerides: control 49 ± 3; for P-Cholesterol: control 350 ± 28
# Description: High-Cholesterol Diet-Fed CD-1 Mice
# ST2518, fenofibrate, rosiglitazone and pioglitazone (PPARγ agonists) were administered by gavage, for 16 days, to CD-1 mice fed with high-cholesterol diet, and plasma parameters were evaluated in post-absorptive state.
# db/db mice = experiment: Increase in HDL-cholesterol levels in db/db mice; type: in vivo
# Description: Increase in HDL-Cholesterol Levels in db/db Mice
# In this experiment db/db mice were used in which PPARα expression is above normal (Memon et al., Endocrinology 2000, 4021-4031) and HDL-cholesterol levels are substantially elevated (Silver et al., J Biol Chem 1999, 274: 4140-4146).
# The C57BL[KsJ db/db mice were acclimatised for one week in standard conditions (22±2° C.; 55±15% humidity; 15-20 air changes/hour; 12 hours light/darkness cycle with light from 7.00 a.m. to 7 p.m.) with a standard 4 RF21 diet (Mucedola). Blood samples were taken in post-absorption conditions (fasting from 8.30 a.m. to 4.30 p.m.) from the caudal vein with the aid of a Jelco 22G catheter (Johnson and Johnson). Glucose, insulin, triglyceride, cholesterol, free fatty acid and urea levels were checked in plasma for a homogeneous distribution of the mice in the treatment groups.
# At the beginning of treatment the animals' body weight was checked and arrangements were made to monitor their water and feed consumption. […]
# The compound tested, obtained as described in example 4 (ST 1929) was administered at the dose of 24 mg/kg in 10 ml/kg of vehicle (1% CMC containing Tween 80 0.5% in deionized H2O).
# The other compounds tested were also administered at a dose equivalent to that in example 4.
# Ciprofibrate, a known PPARα agonist (Varanasi et al., J Biol Chem 1996, 271: 2147-2155; Latruffe et al. Cell Biochem Biophys 2000, 32 Spring: 213-220) was administered at the dose of 20 mg/kg (Dwivedi et al., Toxicol Pathol 1989, 17: 16-26; Qi et al., Proc Natl Acad Sci USA 1999, 96: 1585-1590).
# The animals were sacrificed (by decapitation) in conditions of post-absorption (fasting from 9.30 a.m. to 4.30 p.m.) 7 hours after the last treatment. The levels of a number of important lipid and carbohydrate metabolism parameters were determined in the serum.
# The HDL-cholesterol levels were measured by treating the serum with phosphotungstic-acid-based precipitating reagent (ABX Diagnostics) which removes the chylomicrons, very low density and low density lipoproteins and determining the HDL-cholesterol levels in the supernatant with the aid of the Cholesterol Kit (ABX Diagnostics) and the Cobas Mira S Autoanalyzer (Roche).
# In a further experiment, where the above reported ST2195 was used as reference compound, db/db mice were treated orally twice daily (8.30 a.m. and 6.30 p.m.) for 14 days with the test items (equimolar to 25 mg/kg of ST2 195) giving the following results reported in Table 3: […]
# [2] = test system: standard diet-fed c57bl/6j mice; experiment: Hypolipidemic activity in standard diet-fed c57bl/6j mice; type: in vivo; conditions: 15 days, post-absorptive state, control 53.8 ± 4.2
# Description: Standard Diet-Fed c57bl/6j Mice
# ST2518 was evaluated in comparison with fenofibrate also in c57b1/6j mice fed with standard diet (Table 5).
# hAPO A I transgenic mice = experiment: Plasma lipid parameters in hAPO A I transgenic mice; type: in vivo; conditions: 16 days, post-absorptive state; for P-triglycerides: control 75 ± 6
# Description: ST2518, fenofibrate and rosiglitazone were administered by gavage for 16 days, and plasma (p) parameters were evaluated in post-absorptive state.
# Gal4DBD/PPARαLBD = molecular target: T1, Gal4DBD/PPARαLBD (Homo sapiens, UniProt Q07869); experiment: Transient transfection of COS-7 cells, Gal4DBD/PPARαLBD transactivation, CAT reporter (II method); type: cell-based; conditions: read-out: percentage activation of the CAT reporter gene compared to reference compound WY-14.643 2 μM taken as 100%
# T1 construct: expressed in transfected cells; host or cells: COS-7 (monkey kidney fibroblasts)
# T1 sequence (Q07869 239-466 limits assumed): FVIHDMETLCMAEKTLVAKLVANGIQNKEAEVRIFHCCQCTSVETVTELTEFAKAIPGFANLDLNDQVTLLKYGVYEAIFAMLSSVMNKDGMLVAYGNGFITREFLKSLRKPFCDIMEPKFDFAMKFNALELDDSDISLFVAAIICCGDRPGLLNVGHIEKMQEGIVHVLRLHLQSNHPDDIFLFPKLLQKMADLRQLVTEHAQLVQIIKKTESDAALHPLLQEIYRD
# Excerpt: Transient Transfection of Eukaryotic Cells to Evaluate the Agonist Activity of PPARα Ligands (II Method)
# An alternative transactivation system, which differs mainly in the way the receptor is positioned onto the DNA, and depending on how the event of ligand binding is translated into transcriptional activation, was used.
# In this model eukaryotic cells were transiently transfected with an expression vector encoding a fusion protein between the DNA binding domain (DBD) of the yeast Gal4 transcription factor and the ligand binding domain (LBD) of the PPARα (Gal4DBD/PPARαLBD). The reporter vector containing 5 copies of the high affinity binding site for Gal4 (named UAS, upstream activating sequence) upstream of a strong viral promoter linked to the reporter gene chloramphenicol acetyltransferase (CAT), was co-transfected. This model offered some advantages, the most important of which was the absence of interference by endogenous receptors.
# Besides expression and reporter vectors, cells were transfected with a control vector pCH110 that encodes the β-galactosidase enzyme to correct for differences in transfection efficiency.
# A monkey kidney fibroblast cell line (COS-7) was used. Cells were co-transfected with the plasmid carrying the gene-reporter, the expression plasmid encoding the fusion protein Gal4DBD/PPARαLBD, and the control vector pCH110. Cells were then treated with increasing concentrations of test compounds and the CAT activity was measured. Untreated cells were used as control.
# Monkey kidney fibroblasts (COS-7) were routinely grown in DMEM (Dulbecco's modified Eagle's medium) supplemented with 3.7 g/l sodium bicarbonate, 4 mM L-glutamine, 4.5 g/l glucose, 1 mM sodium piruvate and 10% v/v foetal bovine serum, in the presence of streptomycin 100 μg/ml and penicillin 100 U/ml.
# COS-7 cells were transiently transfected by using the multi-component lipid-based FuGENE6 Transfection Reagent that complexes with and transports DNA into the cells during transfection. Cells were seeded at 1.2×10^5 cells/well, in 12-well plates, and cultured overnight at 37° C. in a 5% v/v carbon dioxide atmosphere. Two hours before transfection the culture medium was replaced by fresh serum-free medium and then transfection was performed with FuGENE6 Transfection Reagent according to the instructions of the manufacturer. Briefly, the transfection mixture containing (for each well) 0.8 μg of the expression vector, 1.6 μg of the reporter vector, 0.8 μg of the control vector and 9 μl of FuGENE6 Transfection Reagent was added directly to the cells in the presence of serum-free medium. After 5 hours the transfection medium was replaced by 1 ml of the complete culture medium with or without the test molecules at 3 different concentrations (2, 20 and 100 μM). 2 μM Wy-14,643, a known PPARα ligand, was used as positive control.
# After 48 h, the cells were washed twice with 1 ml phosphate buffer (PBS) and then harvested by scraping them in TEN buffer (Tris [hydroxymethyl] aminomethane 10 mM pH 8, ethylenediamine tetraacetic acid 1 mM, pH 8, sodium chloride 0.1 M). Following centrifugation at room temperature, for 3 min at 1000 revs per minute (rpm), cells were resuspended with 60 μl of Lysis buffer (0.25M Tris-HCl, pH 8) and lysed by three rapid freeze/thaw cycles (three 5-minute cycles). Cell debris was then removed by centrifugating at 4° C., for 15 min at 15.000 revs per minute (rpm),. Glycerol (final 10% v/v) and β-mercaptoethanol (final 5 mM) were then added (final volume 75 μl) and the cell extracts were stored at −80° C. until assayed.
# The CAT activity assay was performed as follows: 20 μl of cell lysate (pre-warmed at 65° C. for 10 min to deactivate internal deacetylase enzymatic activity) were added to 10 μl of 3.5 mg/ml n-butirryl-CoA, 5 μl ([…]) of [14C]-chloramphenicol and 65 μl of distilled H20 and incubated 2 h at 37° C. Reaction was blocked by adding 200 μl of the solution xylene/2,6,10,14 tetramethyl-pentadecane (in a 1:2 v/v mixture). […]
structure (smiles),measurement,setting,value
CCc1ccc(CCOc2ccc(CC3SC(=O)NC3=O)cc2)nc1 (stereo not drawn) [pioglitazone],P-triglycerides,[1]; 20 mg/Kg/bid by gavage,43 ± 4 mg/dL
same,P-Cholesterol,[1]; 20 mg/Kg/bid by gavage,345 ± 27 mg/dL
"CC(C)OC(=O)C(C)(C)Oc1ccc(C(=O)c2ccc(Cl)cc2)cc1 [Fenofibrate, reference compound]",Increase in HDL/cholesterol levels (%),"db/db mice; 24.7 mg/kg, 25 days",+18%
same,Increase in HDL/cholesterol levels (%),"db/db mice; second experiment, 24.7 mg/kg, 16 days",+56[…] %
same,P-triglycerides,[1]; 26 mg/Kg/bid by gavage,43 ± 3 mg/dL
same,P-Cholesterol,[1]; 26 mg/Kg/bid by gavage,308 ± 18 mg/dL
same,Triglycerides (plasma),[2]; 25 mg/kg/bid by gavage,38.0 ± 2.9 Δ mg/dl
same,Triglycerides (plasma),[2]; 75 mg/kg/bid by gavage,34.4 ± 2.7 Δ mg/dl
same,Triglycerides (plasma),[2]; 125 mg/kg/bid by gavage,36.0 ± 1.2 Δ mg/dl
same,P-triglycerides,hAPO A I transgenic mice; 26 mg/kg/bid by gavage,78 ± 6 mg/dL
"COc1ccc(OC(=O)N(CC(=O)O)Cc2ccc(OCCc3nc(-c4ccccc4)oc3C)cc2)cc1 [Muraglitazar, reference compound]",Triglycerides (plasma),[2]; 5 mg/kg/bid by gavage,45.6 ± 3.4 mg/dL
"COC(=O)C(C)(C)Sc1ccc(OC(=O)NCc2ccc(OC)cc2)cc1 [ST2031, methyl 2-[4-[[(4-methoxybenzyl)carbamoyl]oxy]phenylthio]isobutyrate]",Increase in HDL/cholesterol levels (%),"db/db mice; oral twice daily, dose equivalent to 24 mg of ST1929, 10 days",+51 ▴ %
same,melting point,,64 to 65 °C
"COC(=O)C(C)(C)Sc1ccc(OCCc2ccc3ccccc3c2)cc1 [ST2011, methyl 2-[4-[2-(2-naphthyl)ethoxy]phenyl-thio]isobutyrate]",melting point,,56 to 57 °C
"CN(CCOc1ccc(CC2SC(=O)NC2=O)cc1)c1ccccn1 (stereo not drawn) [rosiglitazone, reference compound]",P-triglycerides,[1]; 5 mg/Kg/bid by gavage,41 ± 3 mg/dL
same,P-Cholesterol,[1]; 5 mg/Kg/bid by gavage,354 ± 23 mg/dL
same,P-triglycerides,hAPO A I transgenic mice; 5 mg/kg/bid by gavage,74 ± 10 mg/dL
same,P-hdl-cholesterol,"hAPO A I transgenic mice; 5 mg/kg/bid by gavage, control 163 ± 6",144 ± 18 mg/dL
"COC(=O)C(C)(C)Sc1ccc(OCCc2ccc(Cl)cc2Cl)cc1 [ST2531, methyl 2-[4-(2-(2,4-dichloro-phenyl)ethoxy)phenylthio]isobutyrate]",melting point,,73 to 74 °C
COC(=O)C(C)(C)Sc1ccc(OC(=O)Nc2ccc(C(F)(F)F)cc2)cc1,melting point,,110 to 111 °C
"COC(=O)C(C)(C)Sc1cccc(O)c1 [ST2047, methyl 2-(3-hydroxyphenylthio)isobutyrate]",melting point,,41.5 to 42.5 °C
"COC(=O)C(C)(C)Sc1ccc(OCCn2c3ccccc3c3ccccc32)cc1 [ST2387, methyl 2-[4-(2-(carbazol-9-yl)ethoxy)phenyl-thio]isobutyrate]",melting point,,72 to 74 °C
"CC(C)(Sc1ccc(O)cc1)C(=O)O [ST1981, 2-(4-hydroxyphenylthio)isobutyric acid]",melting point,,152 to 154 °C
"COC(=O)C(C)(C)Sc1cccc(OCc2ccc(-c3ccc([N+](=O)[O-])cc3)o2)c1 [ST2501, methyl 2-[3-[5-(4-nitrophenyl)furfuryl-oxy]phenylthio]isobutyrate]",activation at 2 µM,Gal4DBD/PPARαLBD; 2 μM,85.7%
same,activation at 20 µM,Gal4DBD/PPARαLBD; 20 μM,288%
same,activation at 100 µM,Gal4DBD/PPARαLBD; 100 μM,231%
same,melting point,,81 to 82 °C
